Where a name gives a salt, the structure may show the parent alone. Each block holds one compound with its values, some of them ahead of it.
Experiments:
[1] = tested on: human lung adenocarcinoma cell line H1299; assay: CellTiter-Glo tumor cell proliferation, H1299; assay type: cell-based; conditions: NCI-H1299, 72 h
Experimental: (§1) The effect of compounds on tumor cell proliferation was detected by CellTiter-Glo method. Human melanoma cell line A375, non-small cell lung cancer cell line A549, human lung adenocarcinoma cell line H1299, colorectal cancer cell line HCT116, liver cancer cell line HepG2 and gastric cancer cell line MGC80-3 were cultured in vitro. The cells were collected after growing to the logarithmic growth phase, centrifuged at 1000 rpm for 5 min, and suspended in an appropriate amount of medium after discarding the supernatant, and the cell concentration was adjusted to 2×10^4/mL. The cell suspension was inoculated onto the 384-well cell culture plate, with 50 μL per well. After being cultured in a cell incubator (37° C., 5% CO2) for 24 h, 5 μL of drug diluted by the cell culture medium was added into each well for the treatment group. Each drug was provided in triplicate. After 72 h incubation in the incubator, 20 μL of CellTiter-Glo was added into each well, and the relative luminescence unit (RLU) was measured with Multimode Microplate Reader Varioskan Flash (Thermo Scientific, USA) after placed at 37° C. for 20 min, and compared with the RLU of the control group. SigmaPlot 10.0 software was used to calculate the inhibition rate and IC50 value.

[2] = tested on: non-small cell lung cancer cell line A549; assay: CellTiter-Glo tumor cell proliferation, A549; assay type: cell-based, human; conditions: 72 h; for inhibition at 1 µM / inhibition at 10 µM: read-out: Inhibition rate A549 (%); for IC50: CellTiter-Glo
Experimental: as §1

[3] = tested on: colorectal cancer cell line HCT116; assay: CellTiter-Glo tumor cell proliferation, HCT116; assay type: cell-based, human; conditions: 72 h; for inhibition at 1 µM / inhibition at 10 µM: read-out: Inhibition rate HCT116 (%); for IC50: CellTiter-Glo
Experimental: as §1

[4] = tested on: Human melanoma cell line A375; assay: CellTiter-Glo tumor cell proliferation, A375; assay type: cell-based; conditions: 72 h; for inhibition at 1 µM / inhibition at 10 µM: read-out: Inhibition rate A375 (%); for IC50: CellTiter-Glo
Experimental: as §1

[5] = tested on: human liver cancer Bel7404; assay: Antitumor activity in vivo, Bel7404 transplanted in nude mice; parameters: species or system male BALB/c athymic nude mice; conditions: 15 mg/kg
Experimental: In the test, the Bel7404 models of human liver cancer transplanted into 6-week-old male BALB/c athymic nude mice (purchased from Shanghai Slac Laboratory Animal Co., Ltd.) with body weight of 18-20 g were used to study the anti-tumor effect of compound 30. The dose of compound 30 was 50 mg/kg (30H group), 25 mg/kg (30 M group) and 12.5 mg/kg (30 L group), respectively, and was injected intravenously twice a week for 5 times in total; at the same time, 5-FU was used as the control drug, which was injected intraperitoneally twice a week for 7 times in total (5 mice/group for the compound 30 administration group, 5 mice in 5 FU administration group; 8 mice were used as the mock group). The long diameter a (mm) and the vertical short diameter b (mm) of the tumor were measured twice a week with a digital electronic caliper. The tumor volume calculation formula was TV=ab^2/2; and the relative tumor volume calculation formula was RTV=Vt/Vo, wherein Vo was the tumor volume measured on the first day of administration (d1), and Vt was the tumor volume at each measurement. On the 22nd day of administration (d22), the animals were sacrificed and weighed. The tumor mass was dissected and weighed. The tumor inhibition rate (tumor inhibitory rate, %) was calculated according to the following formula: […]

[6] = tested on: liver cancer cell line HepG2; assay: CellTiter-Glo tumor cell proliferation, HepG2; assay type: cell-based, human
Experimental: as §1

[7] = tested on: human multiple myeloma RPMI 8226; assay: Pharmacodynamic study, RPMI 8226 subcutaneous xenograft; assay type: in vivo, female NOD/SCID mice; conditions: positive control 0.5 mg/kg, twice a week, tail vein, day of the last administration
Experimental: The anti-tumor effect in vivo was studied by using the tumor animal model obtained by subcutaneous xenotransplantation of cell lines into female NOD/SCID mice (purchased from Sipeifu Biotechnology Co., Ltd.).
RPMI 8226 cells were subcutaneously inoculated into NOD/SCID mice, and human multiple myeloma subcutaneously transplanted tumor model was successfully established 9 days after inoculating the cells. The test was divided into vehicle (0.3 mL DMSO, 0.27 mL Tween-80, 2.43 mL normal saline) control group, compound 30 low-dose group (20 mg/kg), compound 30 medium-dose group (30 mg/kg), compound 30 high-dose group (40 mg/kg), compound 39 low-dose group (5 mg/kg), compound 39 medium-dose group (10 mg/kg), and compound 39 high-dose group (15 mg/kg), and bortezomib (API purchased from Yangtze River Pharmaceutical) was used as the positive control group (0.5 mg/kg); 5 tumor-bearing mice established above in each group were administered by tail vein twice a week for nine times in total. The long diameter a (mm) of the tumor and the short diameter b (mm) of the tumor perpendicular to the long diameter were measured with digital electronic caliper twice a week. The calculation formula of tumor volume was: TV=ab^2/2; and the calculation formula of relative tumor volume was: RTV=Vt/Vo, Vo was the tumor volume measured when the mice in each group were divided into cages and administered for the first time (d1), and Vt was the tumor volume measured at the last administration. The animals were sacrificed 31 days (d22) after inoculation of RPMI 8226 cells, and weighed. The tumor mass was dissected and weighed, and the tumor inhibition rate was calculated according to the following formula: […]

IC50 [1]: 7190 nM
IC50 ([3]; Homo sapiens, HCT-116): 6530 nM
IC50 ([4]; Homo sapiens, A-375): 8910 nM
Compound: CC(C)C[C@H](NC(=O)Cn1nc(-c2ccccc2OS(=O)(=O)c2cccc(C(F)(F)F)c2)cc1-c1ccccc1)B(O)O [Compound 1, (R)-(3-methyl-1-(2-(5-phenyl-3-(2-(((3-(trifluoromethyl)phenyl)sulfonyl)oxy)phenyl)-1H-pyrazol-1-yl)acetamido)butyl)boronic acid]
inhibition at 1 µM ([2]; Homo sapiens, A549): 11.9%
inhibition at 10 µM ([2]; Homo sapiens, A549): 66.4%
inhibition at 1 µM ([3]; Homo sapiens, HCT-116): 13.1%
inhibition at 10 µM ([3]; Homo sapiens, HCT-116): 98%
inhibition at 1 µM ([4]; Homo sapiens, A-375): 5.8%
inhibition at 10 µM ([4]; Homo sapiens, A-375): 98.4%

Animal weight (g) (After tumor removal) ([5]; ip × 7, d22): 23.14 ± 0.58 g
Compound: O=c1[nH]cc(F)c(=O)[nH]1 [Compound 5FU, 5-FU, reference compound]
RTV (d22) ([5]; ip × 7): 2.78 ± 0.37
Inhibition rate % ([5]; ip × 7, d22): 53.77%

Compound: CC(C)C[C@H](NC(=O)Cn1nc(-c2ccccc2OS(=O)(=O)c2cccc(C(F)(F)F)c2)cc1-c1ccc(OCc2ccccc2)cc1)B(O)O [Compound 23, (R)-(1-(2-(5-(4-(benzyloxy)phenyl)-3-(2-(((3-(trifluoromethyl)phenyl)sulfonyl)oxy)phenyl)-1H-pyrazol-1-yl)acetamido)-3-methylbutyl)boronic acid]
inhibition at 1 µM ([2]; Homo sapiens, A549): 7.4%
inhibition at 10 µM ([2]; Homo sapiens, A549): 63.4%
inhibition at 1 µM ([3]; Homo sapiens, HCT-116): 2.6%
inhibition at 10 µM ([3]; Homo sapiens, HCT-116): 55.6%
inhibition at 1 µM ([4]; Homo sapiens, A-375): 5.7%
inhibition at 10 µM ([4]; Homo sapiens, A-375): 77%

Compound: CC(C)C[C@H](NC(=O)Cn1nc(-c2ccccc2OS(=O)(=O)c2cccc(C(F)(F)F)c2)cc1-c1ccco1)B(O)O [Compound 24, (R)-(1-(2-(5-(furan-2-yl)-3-(2-(((3-(trifluoromethyl)phenyl)sulfonyl)oxy)phenyl)-1H-pyrazol-1-yl)acetamido)-3-methylbutyl)boronic acid]
inhibition at 1 µM ([2]; Homo sapiens, A549): 1.9%
inhibition at 10 µM ([2]; Homo sapiens, A549): 66.7%
inhibition at 1 µM ([3]; Homo sapiens, HCT-116): 4.9%
inhibition at 10 µM ([3]; Homo sapiens, HCT-116): 97.1%
inhibition at 1 µM ([4]; Homo sapiens, A-375): 14.9%
inhibition at 10 µM ([4]; Homo sapiens, A-375): 97%

Compound: CC(C)C[C@H](NC(=O)Cn1nc(-c2ccccc2OS(=O)(=O)c2cccc(C(F)(F)F)c2)cc1-c1cccs1)B(O)O [Compound 25, (R)-(3-methyl-1-(2-(5-(thiophen-2-yl)-3-(2-(((3-(trifluoromethyl)phenyl)sulfonyl)oxy)phenyl)-1H-pyrazol-1-yl)acetamido)butyl)boronic acid]
inhibition at 1 µM ([2]; Homo sapiens, A549): 6.2%
inhibition at 10 µM ([2]; Homo sapiens, A549): 71.2%
inhibition at 1 µM ([3]; Homo sapiens, HCT-116): 5.3%
inhibition at 10 µM ([3]; Homo sapiens, HCT-116): 97.2%
inhibition at 1 µM ([4]; Homo sapiens, A-375): 10.3%
inhibition at 10 µM ([4]; Homo sapiens, A-375): 97.7%

IC50 [2]: 3070 nM
IC50 [3]: 1410 nM
IC50 [4]: 2590 nM
Compound: Cc1cc(-c2cccc(NS(=O)(=O)c3cccc(C(F)(F)F)c3)c2)nn1CC(=O)N[C@@H](CC(C)C)B(O)O [Compound 26]

IC50 ([2]; Homo sapiens, A549): 680 nM
IC50 ([3]; Homo sapiens, HCT-116): 300 nM
IC50 ([4]; Homo sapiens, A-375): 910 nM
Compound: CC(C)C[C@H](NC(=O)Cn1nc(-c2cccc(O)c2)cc1-c1ccccc1)B(O)O [Compound 27, (R)-(1-(2-(3-(3-hydroxyphenyl)-5-phenyl-1H-pyrazol-1-yl)acetamido)3-methylbutyl)boronic acid]

IC50 [2]: 8680 nM
IC50 [3]: 3410 nM
IC50 [4]: 8250 nM
Compound: CC(C)C[C@H](NC(=O)Cn1nc(-c2cccc(OS(=O)(=O)c3cccc(C(F)(F)F)c3)c2)cc1-c1ccccc1)B(O)O [Compound 28]

IC50 ([2]; Homo sapiens, A549): 3640 nM
IC50 ([3]; Homo sapiens, HCT-116): 920 nM
IC50 ([4]; Homo sapiens, A-375): 1430 nM
Compound: CC(C)C[C@H](NC(=O)Cn1nc(-c2cccc(OCCN(C)C)c2)cc1-c1ccccc1)B(O)O [Compound 29, (R)-(1-(2-(3-(3-(2-(dimethylamino)ethoxy)phenyl)-5-phenyl-1H-pyrazol-1-yl)acetamido)-3-methylbutyl)boronic acid hydrochloride]

IC50 ([2]; Homo sapiens, A549): 2190 nM
IC50 ([3]; Homo sapiens, HCT-116): 500 nM
IC50 ([4]; Homo sapiens, A-375): 690 nM
Compound: CC(C)C[C@H](NC(=O)Cn1nc(-c2cccc(OCCCN3CCOCC3)c2)cc1-c1ccccc1)B(O)O [Compound 31, (R)-(3-methyl-1-(2-(3-(3-(3-morpholinopropoxy)phenyl)-5-phenyl-1H-pyrazol-1-yl)acetamido)butyl)boronic acid hydrochloride]

IC50 ([6]; Homo sapiens, HepG2, 72 h): 101 nM
Compound: CC(C)C[C@H](NC(=O)Cn1nc(-c2cccc(OCCCN3CCN(c4ccccc4)CC3)c2)cc1-c1ccccc1)B(O)O [Compound 40, (R)-(3-methyl-1-(2-(5-phenyl-3-(3-(3-(4-phenylpiperazin-1-yl)propoxy)phenyl)-1H-pyrazol-1-yl)acetamido)butyl)boronic acid dihydrochloride]

Compound: CC(C)C[C@H](NC(=O)Cn1nc(-c2cccc(OCCCCN3CCN(c4ccccc4)CC3)c2)cc1-c1ccccc1)B(O)O [Compound 41, (R)-(3-methyl-1-(2-(5-phenyl-3-(3-(4-(4-phenylpiperazin-1-yl)butoxy)phenyl)-1H-pyrazol-1-yl)acetamido)butyl)boronic acid dihydrochloride]
IC50 ([6]; Homo sapiens, HepG2, 72 h): 123 nM

Compound: CC(C)C[C@H](NC(=O)[C@H](Cc1ccccc1)NC(=O)c1cnccn1)B(O)O [bortezomib, reference compound]
Relative tumor volume (x ± S) [7]: 5.17 ± 0.98
T/C (%) [7]: 55.41%
TGI (%) [7]: 44.59%
Tumor volume (x ± S) ([7]; in mm³ (unit assumed)): 359.97 ± 65.13

IC50 ([6]; 72 h): 126 nM
Compound: ((1R)-1-(2-(3-(3-(2-(S,R-2,6-dimethylmorpholino)ethoxy)phenyl)-5-phenyl-1H-pyrazol-1-yl)acetamido)-3-methylbutyl)boronic acid hydrochloride [Compound 38]

IC50 ([6]; 72 h): 60 nM
Compound: ((1R)-1-(2-(3-(3-(2-(S,S-2,6-dimethylmorpholino)ethoxy)phenyl)-5-phenyl-1H-pyrazol-1-yl)acetamido)-3-methylbutyl)boronic acid hydrochloride [Compound 37]

IC50 ([6]; 72 h): 121 nM
Compound: (R)-(3-methyl-1-(2-(5-phenyl-3-(3-((5-(4-phenylpiperazin-1-yl)pentyl)oxy)phenyl)-1H-pyrazol-1-acyl)acetamido)butyl)boronic acid dihydrochloride [Compound 42]

From patent publication US12473305B2, “Pyrazole boronic acid compound, pharmaceutical composition containing same, and uses thereof” (BEIJING SONGRUN PHARMACEUTICAL TECHNOLOGY CO., LTD., priority 2020, dated 2025)
